# In PMC8325362, “Drugs repurposed for COVID-19 by virtual screening of 6,218 drugs and cell-based assay” (Proceedings of the National Academy of Sciences of the …, 2021):
# pIC50: −log10 of the molar value. Where two headings read alike, the source gives them in different places.
# Key:
# SARS-CoV-2 [1] = settings: for antiviral activity against SARS-CoV-2 in Vero cells: assay validation with reference drugs
# SARS-CoV-2 [2] = assay: microbe, parasite or virus in culture; type: cell-based
# [3] = human, cited from earlier work
# SARS-CoV-2 [4] = assay: microbe, parasite or virus in culture; settings: Severe acute respiratory syndrome coronavirus 2, Vero, 24 h, read-out: SARS-CoV-2 IC50 in Vero cells
# in vitro [5] = settings: African green monkey
# in vitro [6] = settings: human
# SARS-CoV-2 [7] = assay: in vitro; settings: African green monkey
# in vitro [8] = settings: African green monkey, Relative cell viability (%)
# M^pro = M^pro (Severe acute respiratory syndrome coronavirus 2, UniProt P0DTD1); type: biochemical; settings: FRET assay, 0.1 to 50 μM
# SARS-CoV-2 [9] = assay: Checkerboard drug combination assay, SARS-CoV-2 inhibition in Vero cells; type: cell-based; settings: Severe acute respiratory syndrome coronavirus 2, Vero, read-out: Relative viral inhibition (%); for inhibition at 0.03 µM: Omipalisib 0.03 μM; for inhibition at 0.06 µM: Omipalisib 0.06 μM; for inhibition at 0.12 µM: Omipalisib 0.12 μM; for inhibition at 0.25 µM: Omipalisib 0.25 μM; for inhibition at 0.49 µM: Omipalisib 0.49 μM; for inhibition at 0.98 µM: Omipalisib 0.98 μM; for inhibition at 1.97 µM: Omipalisib 1.97 μM; for inhibition at 0.69 µM: Tipifarnib 0.69 μM; for inhibition at 1.38 µM: Tipifarnib 1.38 μM; for inhibition at 2.75 µM: Tipifarnib 2.75 μM; for inhibition at 5.5 µM: Tipifarnib 5.50 μM; for inhibition at 11 µM: Tipifarnib 11.00 μM; for inhibition at 22.01 µM: Tipifarnib 22.01 μM; for inhibition at 44.02 µM: Tipifarnib 44.02 μM
# [10] = Cytotoxicity (CC50) in Calu-3 cells; settings: human
# [11] = Cytotoxicity (CC50) in Vero cells; settings: African green monkey
# [12] = read-out: Approx. Cmax (maximum serum concentration), oral
# [13] = Severe acute respiratory syndrome coronavirus 2, Calu-3, 24 h, Calu-3 cells, MOI 0.5, 24 h
smiles,measurement,setting,value
CCN(CC)CCCC(C)Nc1ccnc2cc(Cl)ccc12 (stereo not drawn) [chloroquine],antiviral activity against SARS-CoV-2 in Vero cells,SARS-CoV-2 [1],showed antiviral activity
Cc1cc(O)c2c(=O)c3c(O)cc(O)c4c5c(O)cc(O)c6c(=O)c7c(O)cc(C)c8c1c2c(c34)c(c78)c65 [Hypericin],pIC50,"SARS-CoV-2 [2]; Severe acute respiratory syndrome coronavirus 2, Calu-3, 24 h, read-out: SARS-CoV-2 IC50 in Calu-3 cells",< 4.30
same,Cmax,[3]; [12],~8 nM
same,pIC50,SARS-CoV-2 [4],4.71
same,CC50,in vitro [5],> 50 µM
same,CC50,in vitro [6],> 50 µM
COc1ncc(-c2ccc3nccc(-c4ccnnc4)c3c2)cc1NS(=O)(=O)c1ccc(F)cc1F [Omipalisib],fold higher activity than remdesivir,SARS-CoV-2 [2]; Calu-3,200 fold
same,pIC50,"SARS-CoV-2 [2]; Calu-3 cells, MOI 0.5, 24 h",8.00
same,fold lower IC50 in Calu-3 cells than in Vero cells,SARS-CoV-2 [2]; Calu-3 vs Vero,49 fold
same,pIC50,SARS-CoV-2 [2]; [13],8.00
same,selectivity ratio,SARS-CoV-2 [7],62.8
same,fold higher antiviral activity than remdesivir,SARS-CoV-2 [1]; Vero cells,20 fold
same,Cmax,"[3]; in vivo, po",~300 nM
same,pIC50,SARS-CoV-2 [4],6.31
same,viability,"in vitro [8]; Fig. 4B, Omipalisib 0.03 μM, Remdesivir 0.00 μM",82%
same,viability,"in vitro [8]; Fig. 4B, Omipalisib 0.06 μM, Remdesivir 0.00 μM",82%
same,viability,"in vitro [8]; Fig. 4B, Omipalisib 0.12 μM, Remdesivir 0.00 μM",80%
same,viability,"in vitro [8]; Fig. 4B, Omipalisib 0.25 μM, Remdesivir 0.00 μM",81%
same,viability,"in vitro [8]; Fig. 4B, Omipalisib 0.49 μM, Remdesivir 0.00 μM",80%
same,viability,"in vitro [8]; Fig. 4B, Omipalisib 0.98 μM, Remdesivir 0.00 μM",81%
same,viability,"in vitro [8]; Fig. 4B, Omipalisib 1.97 μM, Remdesivir 0.00 μM",80%
same,viability,"in vitro [8]; Fig. 4E, Tipifarnib 0.00 μM, Omipalisib 0.03 μM",87%
same,viability,"in vitro [8]; Fig. 4E, Tipifarnib 0.00 μM, Omipalisib 0.06 μM",89%
same,viability,"in vitro [8]; Fig. 4E, Tipifarnib 0.00 μM, Omipalisib 0.12 μM",88%
same,viability,"in vitro [8]; Fig. 4E, Tipifarnib 0.00 μM, Omipalisib 0.25 μM",88%
same,viability,"in vitro [8]; Fig. 4E, Tipifarnib 0.00 μM, Omipalisib 0.49 μM",88%
same,viability,"in vitro [8]; Fig. 4E, Tipifarnib 0.00 μM, Omipalisib 0.98 μM",87%
same,viability,"in vitro [8]; Fig. 4E, Tipifarnib 0.00 μM, Omipalisib 1.97 μM",84%
same,inhibitory activity against M^pro,M^pro,showed no inhibitory activity
same,inhibition at 0.03 µM,"SARS-CoV-2 [9]; Fig. 4A, Remdesivir 0.00 μM",6%
same,inhibition at 0.06 µM,"SARS-CoV-2 [9]; Fig. 4A, Remdesivir 0.00 μM",6%
same,inhibition at 0.12 µM,"SARS-CoV-2 [9]; Fig. 4A, Remdesivir 0.00 μM",15%
same,inhibition at 0.25 µM,"SARS-CoV-2 [9]; Fig. 4A, Remdesivir 0.00 μM",29%
same,inhibition at 0.49 µM,"SARS-CoV-2 [9]; Fig. 4A, Remdesivir 0.00 μM",63%
same,inhibition at 0.98 µM,"SARS-CoV-2 [9]; Fig. 4A, Remdesivir 0.00 μM",73%
same,inhibition at 1.97 µM,"SARS-CoV-2 [9]; Fig. 4A, Remdesivir 0.00 μM",78%
same,inhibition at 0.03 µM,"SARS-CoV-2 [9]; Fig. 4D, Tipifarnib 0.00 μM",11%
same,inhibition at 0.06 µM,"SARS-CoV-2 [9]; Fig. 4D, Tipifarnib 0.00 μM",31%
same,inhibition at 0.12 µM,"SARS-CoV-2 [9]; Fig. 4D, Tipifarnib 0.00 μM",60%
same,inhibition at 0.25 µM,"SARS-CoV-2 [9]; Fig. 4D, Tipifarnib 0.00 μM",90%
same,inhibition at 0.49 µM,"SARS-CoV-2 [9]; Fig. 4D, Tipifarnib 0.00 μM",93%
same,inhibition at 0.98 µM,"SARS-CoV-2 [9]; Fig. 4D, Tipifarnib 0.00 μM",95%
same,inhibition at 1.97 µM,"SARS-CoV-2 [9]; Fig. 4D, Tipifarnib 0.00 μM",95%
same,CC50 at 24 h,in vitro [5],30.8 µM
same,CC50 at 24 h,in vitro [6],> 0.02 µM
CCN1CCN(c2cc(-c3ccc(F)cc3)c3c(n2)CCCCCC3)CC1 [Blonanserin],pIC50,SARS-CoV-2 [2]; [13],< 4.30
same,Cmax,[3]; [12],~3 nM
same,CC50 at 24 h,[10],> 50 µM
same,CC50 at 24 h,[11],30.3 µM
same,pIC50,SARS-CoV-2 [4],4.92
same,inhibitory activity against M^pro,M^pro,showed inhibitory activities
Cn1cncc1[C@@](N)(c1ccc(Cl)cc1)c1ccc2c(c1)c(-c1cccc(Cl)c1)cc(=O)n2C [Tipifarnib],pIC50,SARS-CoV-2 [2]; [13],5.34
same,Cmax,[3]; [12],~8600 nM
same,CC50 at 24 h,[10],> 50 µM
same,CC50 at 24 h,[11],16.6 µM
same,pIC50,SARS-CoV-2 [4],4.96
same,viability,"in vitro [8]; Fig. 4E, Tipifarnib 0.69 μM, Omipalisib 0.00 μM",90%
same,viability,"in vitro [8]; Fig. 4E, Tipifarnib 1.38 μM, Omipalisib 0.00 μM",91%
same,viability,"in vitro [8]; Fig. 4E, Tipifarnib 2.75 μM, Omipalisib 0.00 μM",90%
same,viability,"in vitro [8]; Fig. 4E, Tipifarnib 5.50 μM, Omipalisib 0.00 μM",91%
same,viability,"in vitro [8]; Fig. 4E, Tipifarnib 11.00 μM, Omipalisib 0.00 μM",76%
same,viability,"in vitro [8]; Fig. 4E, Tipifarnib 22.01 μM, Omipalisib 0.00 μM",7%
same,viability,"in vitro [8]; Fig. 4E, Tipifarnib 44.02 μM, Omipalisib 0.00 μM",0%
same,viability,"in vitro [8]; Fig. 4H, Tipifarnib 0.69 μM, Remdesivir 0.00 μM",91%
same,viability,"in vitro [8]; Fig. 4H, Tipifarnib 1.38 μM, Remdesivir 0.00 μM",90%
same,viability,"in vitro [8]; Fig. 4H, Tipifarnib 2.75 μM, Remdesivir 0.00 μM",89%
same,viability,"in vitro [8]; Fig. 4H, Tipifarnib 5.50 μM, Remdesivir 0.00 μM",88%
same,viability,"in vitro [8]; Fig. 4H, Tipifarnib 11.00 μM, Remdesivir 0.00 μM",80%
same,viability,"in vitro [8]; Fig. 4H, Tipifarnib 22.01 μM, Remdesivir 0.00 μM",6%
same,viability,"in vitro [8]; Fig. 4H, Tipifarnib 44.02 μM, Remdesivir 0.00 μM",0%
same,inhibition at 0.69 µM,"SARS-CoV-2 [9]; Fig. 4D, Omipalisib 0.00 μM",4%
same,inhibition at 1.38 µM,"SARS-CoV-2 [9]; Fig. 4D, Omipalisib 0.00 μM",4%
same,inhibition at 2.75 µM,"SARS-CoV-2 [9]; Fig. 4D, Omipalisib 0.00 μM",6%
same,inhibition at 5.5 µM,"SARS-CoV-2 [9]; Fig. 4D, Omipalisib 0.00 μM",11%
same,inhibition at 11 µM,"SARS-CoV-2 [9]; Fig. 4D, Omipalisib 0.00 μM",91%
same,inhibition at 22.01 µM,"SARS-CoV-2 [9]; Fig. 4D, Omipalisib 0.00 μM",100%
same,inhibition at 44.02 µM,"SARS-CoV-2 [9]; Fig. 4D, Omipalisib 0.00 μM",92%
same,inhibition at 0.69 µM,"SARS-CoV-2 [9]; Fig. 4G, Remdesivir 0.00 μM",0%
same,inhibition at 1.38 µM,"SARS-CoV-2 [9]; Fig. 4G, Remdesivir 0.00 μM",0%
same,inhibition at 2.75 µM,"SARS-CoV-2 [9]; Fig. 4G, Remdesivir 0.00 μM",0%
same,inhibition at 5.5 µM,"SARS-CoV-2 [9]; Fig. 4G, Remdesivir 0.00 μM",10%
same,inhibition at 11 µM,"SARS-CoV-2 [9]; Fig. 4G, Remdesivir 0.00 μM",93%
same,inhibition at 22.01 µM,"SARS-CoV-2 [9]; Fig. 4G, Remdesivir 0.00 μM",100%
same,inhibition at 44.02 µM,"SARS-CoV-2 [9]; Fig. 4G, Remdesivir 0.00 μM",87%
Cc1cccc(C)c1OCC(=O)N[C@@H](Cc1ccccc1)[C@@H](O)C[C@H](Cc1ccccc1)NC(=O)[C@H](C(C)C)N1CCCNC1=O [lopinavir],antiviral activity against SARS-CoV-2 in Vero cells,SARS-CoV-2 [1],showed antiviral activity
O=C(Nc1cc(C(F)(F)F)cc(C(F)(F)F)c1)Nc1ccc(Br)cc1-c1nnn[nH]1 [NS-3728],pIC50,SARS-CoV-2 [2]; [13],< 4.30
same,Cmax,"[3]; in vivo, po",~36500 nM
same,pIC50,SARS-CoV-2 [4],4.55
same,CC50 at 24 h,in vitro [5],> 50 µM
same,CC50 at 24 h,in vitro [6],> 50 µM
